System: weeds
Assay: Glasshouse weed control by HST/HPPD (mesotrione) mixtures, post-emergence
Format: in vivo
Details: post-emergence; for % damage, 1 g ai ha^−1 mesotrione / % damage, no-mesotrione: 14 DAT; for colby: difference to Colby expectation
Procedure: Weed seeds are planted out in trays containing suitable soil (for example 50% peat, 50% John Innes soil no 3) and grown in the glass house conditions under 24-27° C. day; 18-21° C. night and approximately a 14 h (or longer in UK summer) photoperiod. Humidity is ˜65% and light levels up to 2000 μmol/m^2 at bench level. Trays are sprayed with test chemicals dissolved in water with 0.2-0.25% X-77 surfactant and sprayed from a boom on a suitable track sprayer moving at about 2 mph in a suitable track sprayer (for example a DeVries spray chamber with the nozzle about 2 inches from the plant tops). Spray volume is suitably 500-1000 l/ha. Sprays are carried out both pre-emergence and over small plants at about 7-12 d post-emergence
Plants are assessed 14 DAT and herbicidal damage is scored on a scale from 0 to 100%. The HST inhibitor compound 2.30 (designated compound A in table 16 and 17), haloxydine (compound 1.1) and compound 2.13 (designated compound AE in tables 16 and 17) are sprayed at rates between 0 and 500 g/ha.

[1] = ALOMY, 16 g/ha + 1 g ai/ha mesotrione
[2] = ALOMY, 31 g/ha + 1 g ai/ha mesotrione
[3] = ALOMY, 63 g/ha + 1 g ai/ha mesotrione
[4] = ALOMY, 125 g/ha + 1 g ai/ha mesotrione
[5] = ALOMY, 250 g/ha + 1 g ai/ha mesotrione
[6] = ALOMY, 500 g/ha + 1 g ai/ha mesotrione
[7] = ECHCG, 16 g/ha + 1 g ai/ha mesotrione
[8] = ECHCG, 31 g/ha + 1 g ai/ha mesotrione
[9] = ECHCG, 63 g/ha + 1 g ai/ha mesotrione
[10] = ECHCG, 125 g/ha + 1 g ai/ha mesotrione
[11] = ECHCG, 250 g/ha + 1 g ai/ha mesotrione
[12] = ECHCG, 500 g/ha + 1 g ai/ha mesotrione
[13] = SETFA, 16 g/ha + 1 g ai/ha mesotrione
[14] = SETFA, 31 g/ha + 1 g ai/ha mesotrione
[15] = SETFA, 63 g/ha + 1 g ai/ha mesotrione
[16] = SETFA, 125 g/ha + 1 g ai/ha mesotrione
[17] = SETFA, 250 g/ha + 1 g ai/ha mesotrione
[18] = SETFA, 500 g/ha + 1 g ai/ha mesotrione

## O=c1c(Cl)c(F)[nH]c(F)c1Cl [Haloxidine]
[1]
  % damage, 1 g ai ha^−1 mesotrione: 23%
  colby: 10
ALOMY, 16 g/ha
  % damage, no-mesotrione: 13%
[2]
  % damage, 1 g ai ha^−1 mesotrione: 33%
  colby: 7
ALOMY, 31 g/ha
  % damage, no-mesotrione: 27%
[3]
  % damage, 1 g ai ha^−1 mesotrione: 68%
  colby: 15
ALOMY, 63 g/ha
  % damage, no-mesotrione: 53%
[4]
  % damage, 1 g ai ha^−1 mesotrione: 83%
  colby: 5
ALOMY, 125 g/ha
  % damage, no-mesotrione: 78%
[5]
  % damage, 1 g ai ha^−1 mesotrione: 92%
  colby: 2
ALOMY, 250 g/ha
  % damage, no-mesotrione: 90%
[6]
  % damage, 1 g ai ha^−1 mesotrione: 95%
  colby: 0
ALOMY, 500 g/ha
  % damage, no-mesotrione: 95%
[7]
  % damage, 1 g ai ha^−1 mesotrione: 57%
  colby: 18
ECHCG, 16 g/ha
  % damage, no-mesotrione: 33%
[8]
  % damage, 1 g ai ha^−1 mesotrione: 67%
  colby: 11
ECHCG, 31 g/ha
  % damage, no-mesotrione: 52%
[9]
  % damage, 1 g ai ha^−1 mesotrione: 75%
  colby: 15
ECHCG, 63 g/ha
  % damage, no-mesotrione: 57%
[10]
  % damage, 1 g ai ha^−1 mesotrione: 78%
  colby: 6
ECHCG, 125 g/ha
  % damage, no-mesotrione: 70%
[11]
  % damage, 1 g ai ha^−1 mesotrione: 97%
  colby: 12
ECHCG, 250 g/ha
  % damage, no-mesotrione: 83%
[12]
  % damage, 1 g ai ha^−1 mesotrione: 100%
  colby: 2
ECHCG, 500 g/ha
  % damage, no-mesotrione: 98%
[13]
  % damage, 1 g ai ha^−1 mesotrione: 27%
  colby: −15
SETFA, 16 g/ha
  % damage, no-mesotrione: 42%
[14]
  % damage, 1 g ai ha^−1 mesotrione: 82%
  colby: 13
SETFA, 31 g/ha
  % damage, no-mesotrione: 68%
[15]
  % damage, 1 g ai ha^−1 mesotrione: 92%
  colby: 12
SETFA, 63 g/ha
  % damage, no-mesotrione: 80%
[16]
  % damage, 1 g ai ha^−1 mesotrione: 97%
  colby: 3
SETFA, 125 g/ha
  % damage, no-mesotrione: 93%
[17]
  % damage, 1 g ai ha^−1 mesotrione: 100%
  colby: 0
SETFA, 250 g/ha
  % damage, no-mesotrione: 100%
[18]
  % damage, 1 g ai ha^−1 mesotrione: 100%
  colby: 0
SETFA, 500 g/ha
  % damage, no-mesotrione: 100%

## O=c1c(-c2c(F)ccc(F)c2Cl)c(O)c2cccnc2n1CC(F)F [Compound 2.13]
[1]
  % damage, 1 g ai ha^−1 mesotrione: 0%
  colby: 0
ALOMY, 16 g/ha
  % damage, no-mesotrione: 0%
[2]
  % damage, 1 g ai ha^−1 mesotrione: 2%
  colby: 2
ALOMY, 31 g/ha
  % damage, no-mesotrione: 0%
[3]
  % damage, 1 g ai ha^−1 mesotrione: 3%
  colby: 3
ALOMY, 63 g/ha
  % damage, no-mesotrione: 0%
[4]
  % damage, 1 g ai ha^−1 mesotrione: 0%
  colby: 0
ALOMY, 125 g/ha
  % damage, no-mesotrione: 0%
[5]
  % damage, 1 g ai ha^−1 mesotrione: 3%
  colby: 2
ALOMY, 250 g/ha
  % damage, no-mesotrione: 2%
[6]
  % damage, 1 g ai ha^−1 mesotrione: 5%
  colby: −2
ALOMY, 500 g/ha
  % damage, no-mesotrione: 7%
[7]
  % damage, 1 g ai ha^−1 mesotrione: 5%
  colby: −3
ECHCG, 16 g/ha
  % damage, no-mesotrione: 0%
[8]
  % damage, 1 g ai ha^−1 mesotrione: 5%
  colby: −3
ECHCG, 31 g/ha
  % damage, no-mesotrione: 0%
[9]
  % damage, 1 g ai ha^−1 mesotrione: 8%
  colby: 0
ECHCG, 63 g/ha
  % damage, no-mesotrione: 0%
[10]
  % damage, 1 g ai ha^−1 mesotrione: 15%
  colby: 7
ECHCG, 125 g/ha
  % damage, no-mesotrione: 0%
[11]
  % damage, 1 g ai ha^−1 mesotrione: 22%
  colby: 13
ECHCG, 250 g/ha
  % damage, no-mesotrione: 0%
[12]
  % damage, 1 g ai ha^−1 mesotrione: 20%
  colby: 12
ECHCG, 500 g/ha
  % damage, no-mesotrione: 0%
[13]
  % damage, 1 g ai ha^−1 mesotrione: 0%
  colby: 0
SETFA, 16 g/ha
  % damage, no-mesotrione: 0%
[14]
  % damage, 1 g ai ha^−1 mesotrione: 0%
  colby: 0
SETFA, 31 g/ha
  % damage, no-mesotrione: 0%
[15]
  % damage, 1 g ai ha^−1 mesotrione: 0%
  colby: 0
SETFA, 63 g/ha
  % damage, no-mesotrione: 0%
[16]
  % damage, 1 g ai ha^−1 mesotrione: 0%
  colby: 0
SETFA, 125 g/ha
  % damage, no-mesotrione: 0%
[17]
  % damage, 1 g ai ha^−1 mesotrione: 0%
  colby: 0
SETFA, 250 g/ha
  % damage, no-mesotrione: 0%
[18]
  % damage, 1 g ai ha^−1 mesotrione: 0%
  colby: 0
SETFA, 500 g/ha
  % damage, no-mesotrione: 0%

Reference: patent publication US20110173718A1, “HERBICIDE TOLERANT PLANTS” (SYNGENTA CROP PROTECTION, INC., priority 2008, published 2011)
